# Test results reported in patent US10329304B2, “Compounds and methods for inhibition of hedgehog signaling and phosphodiesterase” (Vanderbilt University, priority 2014, dated 2019).
# pIC50: −log10 of the molar value. Several values for one entry are separate records, joined by “and”; a condition that tells them apart may be missing. Identical values can stand only once. Entries after “also recorded” stand apart in the source; their conditions may differ.
# Columns and labels:
# mouse aorta = assay: Myography of cannulated mouse aorta; conditions: listed as Egm
# Description: For myography, to test the vascular tone for presense of downstream or off target effects, mouse aorta was mounted and cannulated on a closed system. A physiological buffer (with respect to pH, CO2, and temperature) was circulated through the vessel.
# hiPSC-CMs = assay: Contractile function of hiPSC-derived cardiomyocytes; assay type: cell-based, human
# PDE4 isoforms = assay: In vitro PDE dose-response assays (BPS Biosciences); assay type: biochemical; conditions: isoforms of PDE4 A-D; read-out: IC50 range over PDE4 isoforms
# Description: In vitro PDE profiling and dose-response assays were performed by BPS Biosciences (San Diego, Calif.). Kinetic Mechanism of inhibition studies were conducted by Millipore (St. Louis, Mo.). In brief, the PDE assay measures fluorescent polarization of FAM-AMP as FAM-cAMP is converted to FAM-AMP by PDE), the binding agent.
# A series of dilutions of the test compound were prepared with 10% DMSO in assay buffer and 5 μl of the dilution was added to a 50 μl reaction so that the final concentration of DMSO is 1% in all of reactions. All of the PDE enzymatic reactions were conducted in duplicate at room temperature for 60 minutes in a 50 μl mixture containing PDE assay buffer (10 mM Tris-HCl, pH7.4, 10 mM MaCl2, 0.05% Tween 20), 100 nM FAM-cAMP, a PDE enzyme and a test compound.
# After the enzymatic reaction, 100 μl of a binding solution (1:100 dilution of the binding agent, which contains the nano beads that recognize FAM-AMP, with the binding agent diluent) was added to each reaction and the reaction was performed at room temperature for 60 minutes. Fluorescence intensity was measured at an excitation of 485 nm and an emission of 528 nm using a Tecan Infinite M1000 microplate reader. Assays done by Millipore were conducted similarly with changes noted below: […]
# panel of 158 GPCRs = assay: Millipore-GPCR Panel (cells expressing Gα15, Ca2+ signaling); assay type: cell-based
# Description: (§1) Profiling assays were not performed in-house. Compounds were shipped to the following companies for possible target identification: Kinase profiling assays were performed by DiscoverRx (San Diego, Calif.) using a phage display model; GPCR profiling assays were performed by Millipore (St. Louis, Mo.) using in cells expressing Gα15, a promiscuous G protein that enhances GPCR coupling to downstream Ca^2+ signaling pathways; phosphatase profiling assay was performed by Millipore (Dundee, UK).
# PDE2A = target: T1, PDE2A (Homo sapiens, UniProt O00408); assay: In vitro PDE assay; assay type: biochemical
# T1 construct: purchased BPS Biosciences (San Diego, Calif.)
# How it was run: (§2)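 Recombinant human PDE incubated 60 min at room temperature in duplicate with 100 nM FAM-cAMP in 10 mM Tris-HCl pH 7.4, 10 mM MgCl2, 0.05% Tween 20, 1% DMSO. FAM-AMP product captured by bead binding agent for 60 min, then fluorescence read at 485/528 nm.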
# PDE7A1 = target: T2, PDE7A1 (Homo sapiens, UniProt Q13946); assay: In vitro PDE assay; assay type: biochemical
# T2 construct: purchased BPS Biosciences (San Diego, Calif.)
# How it was run: as §2
# PDE9A1 = target: T3, PDE9A1 (Homo sapiens, UniProt O76083); assay: In vitro PDE assay; assay type: biochemical
# T3 construct: purchased BPS Biosciences (San Diego, Calif.)
# How it was run: as §2
# PDE8A1 = target: T4, PDE8A1 (Homo sapiens, UniProt O60658); assay: In vitro PDE assay; assay type: biochemical
# T4 construct: purchased BPS Biosciences (San Diego, Calif.)
# How it was run: as §2
# PDE11A4 = target: T5, PDE11A4 (Homo sapiens, UniProt Q9HCR9); assay: In vitro PDE assay; assay type: biochemical
# T5 construct: purchased BPS Biosciences (San Diego, Calif.)
# How it was run: as §2
# PDE1A1 = target: T6, PDE1A1 (Homo sapiens, UniProt P54750); assay: In vitro PDE assay; assay type: biochemical
# T6 construct: purchased BPS Biosciences (San Diego, Calif.)
# How it was run: as §2
# PDE6C = target: T7, PDE6C (Homo sapiens, UniProt P51160); assay: In vitro PDE assay; assay type: biochemical
# T7 construct: purchased BPS Biosciences (San Diego, Calif.)
# How it was run: as §2
# PDE3A = target: T8, PDE3A (Homo sapiens, UniProt Q14432); assay: In vitro PDE assay; assay type: biochemical
# T8 construct: purchased BPS Biosciences (San Diego, Calif.)
# How it was run: as §2
# PDE5A1 = target: T9, PDE5A1 (Homo sapiens, UniProt O76074); assay: In vitro PDE assay; assay type: biochemical
# T9 construct: purchased BPS Biosciences (San Diego, Calif.)
# How it was run: as §2
# PDE10A2 = target: T10, PDE10A2 (Homo sapiens, UniProt Q9Y233); assay: In vitro PDE assay; assay type: biochemical
# T10 construct: purchased BPS Biosciences (San Diego, Calif.)
# How it was run: as §2
# PDE4D3-AKAP450 = PDE4D3-AKAP450 (Homo sapiens, UniProt Q08499); assay: PDE4D3 localization and co-immunoprecipitation with AKAP450; assay type: cell-based; conditions: 5 μM
# [1] = tested on: Bovine Viral Diarrhea Virus; assay: BVDV CPE assay; assay type: cell-based
# Description: Provided in FIG. 37 are the results from BVDV (Bovine Viral Diarrhea Virus, surrogate for Hepatitis C virus) CPE ([…]) testing done. The assay was repeated with […] (a PDE4B and PDE4D inhibitor). Hi913 (our prototypic PDE4 inhibitor) was tested in half-log concentrations ranging from 100 μM to 0.33 μM. As the stock solution of […] was 10 mM, this meant that the final DMSO concentrations for the highest Hi913 concentrations were 1%, 0.33%, and 0.1%. The normal final DMSO concentrations used is 0.1%, so additional DMSO controls of 1% and 0.33% were included. The Hi913 data for the highest 3 concentrations is normalized to the respective DMSO concentrations. […] The outlier effects at 100 μM are probably due to cytotoxicity at the high drug concentration.
# panel of 21 phosphatases = assay: Phosphatase profiling assay (Millipore); assay type: biochemical, human
# Description: as §1
# Dengue = Dengue viral CPE assay; assay type: cell-based
# Description: The small molecule PDE4 inhibitors of the presently disclosed subject matter are actively anti-viral in viral CPE (cytopathic effect) assays versus RSV (respiratory syncytial virus), Dengue (1 experiment), and BVDV (bovine viral diarrhea virus, surrogate for human hepatitis C virus). Of note, PDE4 inhibitors are now approved for COPD, for which RSV may be an exacerbating factor).
# NIH3T3 cells = assay: Cell viability of parental NIH3T3 cells; assay type: cell-based
# Influenza = Influenza antiviral effect; assay type: cell-based
# Sequence of PDE4D3-AKAP450 (Q08499 1-673 isoform Q08499-2): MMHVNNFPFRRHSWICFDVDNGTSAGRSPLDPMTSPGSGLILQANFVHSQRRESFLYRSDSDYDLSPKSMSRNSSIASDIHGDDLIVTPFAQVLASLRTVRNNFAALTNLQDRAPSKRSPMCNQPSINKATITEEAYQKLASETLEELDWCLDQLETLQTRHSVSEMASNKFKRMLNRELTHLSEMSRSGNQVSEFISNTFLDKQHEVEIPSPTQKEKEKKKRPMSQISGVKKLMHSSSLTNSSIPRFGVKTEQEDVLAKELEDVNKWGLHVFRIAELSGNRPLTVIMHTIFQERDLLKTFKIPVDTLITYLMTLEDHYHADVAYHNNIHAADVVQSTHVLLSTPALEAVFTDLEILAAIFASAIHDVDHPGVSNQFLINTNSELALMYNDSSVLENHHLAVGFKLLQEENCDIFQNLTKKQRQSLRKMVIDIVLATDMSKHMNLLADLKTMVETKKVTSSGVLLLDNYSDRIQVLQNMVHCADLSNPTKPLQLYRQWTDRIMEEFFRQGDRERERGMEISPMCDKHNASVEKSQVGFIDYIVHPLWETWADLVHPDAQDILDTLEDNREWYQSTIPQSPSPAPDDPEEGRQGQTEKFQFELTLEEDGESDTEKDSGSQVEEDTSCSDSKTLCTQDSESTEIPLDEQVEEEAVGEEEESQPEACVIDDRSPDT
# Sequence of PDE4D3-AKAP450 (Q70FJ1 whole entry partner): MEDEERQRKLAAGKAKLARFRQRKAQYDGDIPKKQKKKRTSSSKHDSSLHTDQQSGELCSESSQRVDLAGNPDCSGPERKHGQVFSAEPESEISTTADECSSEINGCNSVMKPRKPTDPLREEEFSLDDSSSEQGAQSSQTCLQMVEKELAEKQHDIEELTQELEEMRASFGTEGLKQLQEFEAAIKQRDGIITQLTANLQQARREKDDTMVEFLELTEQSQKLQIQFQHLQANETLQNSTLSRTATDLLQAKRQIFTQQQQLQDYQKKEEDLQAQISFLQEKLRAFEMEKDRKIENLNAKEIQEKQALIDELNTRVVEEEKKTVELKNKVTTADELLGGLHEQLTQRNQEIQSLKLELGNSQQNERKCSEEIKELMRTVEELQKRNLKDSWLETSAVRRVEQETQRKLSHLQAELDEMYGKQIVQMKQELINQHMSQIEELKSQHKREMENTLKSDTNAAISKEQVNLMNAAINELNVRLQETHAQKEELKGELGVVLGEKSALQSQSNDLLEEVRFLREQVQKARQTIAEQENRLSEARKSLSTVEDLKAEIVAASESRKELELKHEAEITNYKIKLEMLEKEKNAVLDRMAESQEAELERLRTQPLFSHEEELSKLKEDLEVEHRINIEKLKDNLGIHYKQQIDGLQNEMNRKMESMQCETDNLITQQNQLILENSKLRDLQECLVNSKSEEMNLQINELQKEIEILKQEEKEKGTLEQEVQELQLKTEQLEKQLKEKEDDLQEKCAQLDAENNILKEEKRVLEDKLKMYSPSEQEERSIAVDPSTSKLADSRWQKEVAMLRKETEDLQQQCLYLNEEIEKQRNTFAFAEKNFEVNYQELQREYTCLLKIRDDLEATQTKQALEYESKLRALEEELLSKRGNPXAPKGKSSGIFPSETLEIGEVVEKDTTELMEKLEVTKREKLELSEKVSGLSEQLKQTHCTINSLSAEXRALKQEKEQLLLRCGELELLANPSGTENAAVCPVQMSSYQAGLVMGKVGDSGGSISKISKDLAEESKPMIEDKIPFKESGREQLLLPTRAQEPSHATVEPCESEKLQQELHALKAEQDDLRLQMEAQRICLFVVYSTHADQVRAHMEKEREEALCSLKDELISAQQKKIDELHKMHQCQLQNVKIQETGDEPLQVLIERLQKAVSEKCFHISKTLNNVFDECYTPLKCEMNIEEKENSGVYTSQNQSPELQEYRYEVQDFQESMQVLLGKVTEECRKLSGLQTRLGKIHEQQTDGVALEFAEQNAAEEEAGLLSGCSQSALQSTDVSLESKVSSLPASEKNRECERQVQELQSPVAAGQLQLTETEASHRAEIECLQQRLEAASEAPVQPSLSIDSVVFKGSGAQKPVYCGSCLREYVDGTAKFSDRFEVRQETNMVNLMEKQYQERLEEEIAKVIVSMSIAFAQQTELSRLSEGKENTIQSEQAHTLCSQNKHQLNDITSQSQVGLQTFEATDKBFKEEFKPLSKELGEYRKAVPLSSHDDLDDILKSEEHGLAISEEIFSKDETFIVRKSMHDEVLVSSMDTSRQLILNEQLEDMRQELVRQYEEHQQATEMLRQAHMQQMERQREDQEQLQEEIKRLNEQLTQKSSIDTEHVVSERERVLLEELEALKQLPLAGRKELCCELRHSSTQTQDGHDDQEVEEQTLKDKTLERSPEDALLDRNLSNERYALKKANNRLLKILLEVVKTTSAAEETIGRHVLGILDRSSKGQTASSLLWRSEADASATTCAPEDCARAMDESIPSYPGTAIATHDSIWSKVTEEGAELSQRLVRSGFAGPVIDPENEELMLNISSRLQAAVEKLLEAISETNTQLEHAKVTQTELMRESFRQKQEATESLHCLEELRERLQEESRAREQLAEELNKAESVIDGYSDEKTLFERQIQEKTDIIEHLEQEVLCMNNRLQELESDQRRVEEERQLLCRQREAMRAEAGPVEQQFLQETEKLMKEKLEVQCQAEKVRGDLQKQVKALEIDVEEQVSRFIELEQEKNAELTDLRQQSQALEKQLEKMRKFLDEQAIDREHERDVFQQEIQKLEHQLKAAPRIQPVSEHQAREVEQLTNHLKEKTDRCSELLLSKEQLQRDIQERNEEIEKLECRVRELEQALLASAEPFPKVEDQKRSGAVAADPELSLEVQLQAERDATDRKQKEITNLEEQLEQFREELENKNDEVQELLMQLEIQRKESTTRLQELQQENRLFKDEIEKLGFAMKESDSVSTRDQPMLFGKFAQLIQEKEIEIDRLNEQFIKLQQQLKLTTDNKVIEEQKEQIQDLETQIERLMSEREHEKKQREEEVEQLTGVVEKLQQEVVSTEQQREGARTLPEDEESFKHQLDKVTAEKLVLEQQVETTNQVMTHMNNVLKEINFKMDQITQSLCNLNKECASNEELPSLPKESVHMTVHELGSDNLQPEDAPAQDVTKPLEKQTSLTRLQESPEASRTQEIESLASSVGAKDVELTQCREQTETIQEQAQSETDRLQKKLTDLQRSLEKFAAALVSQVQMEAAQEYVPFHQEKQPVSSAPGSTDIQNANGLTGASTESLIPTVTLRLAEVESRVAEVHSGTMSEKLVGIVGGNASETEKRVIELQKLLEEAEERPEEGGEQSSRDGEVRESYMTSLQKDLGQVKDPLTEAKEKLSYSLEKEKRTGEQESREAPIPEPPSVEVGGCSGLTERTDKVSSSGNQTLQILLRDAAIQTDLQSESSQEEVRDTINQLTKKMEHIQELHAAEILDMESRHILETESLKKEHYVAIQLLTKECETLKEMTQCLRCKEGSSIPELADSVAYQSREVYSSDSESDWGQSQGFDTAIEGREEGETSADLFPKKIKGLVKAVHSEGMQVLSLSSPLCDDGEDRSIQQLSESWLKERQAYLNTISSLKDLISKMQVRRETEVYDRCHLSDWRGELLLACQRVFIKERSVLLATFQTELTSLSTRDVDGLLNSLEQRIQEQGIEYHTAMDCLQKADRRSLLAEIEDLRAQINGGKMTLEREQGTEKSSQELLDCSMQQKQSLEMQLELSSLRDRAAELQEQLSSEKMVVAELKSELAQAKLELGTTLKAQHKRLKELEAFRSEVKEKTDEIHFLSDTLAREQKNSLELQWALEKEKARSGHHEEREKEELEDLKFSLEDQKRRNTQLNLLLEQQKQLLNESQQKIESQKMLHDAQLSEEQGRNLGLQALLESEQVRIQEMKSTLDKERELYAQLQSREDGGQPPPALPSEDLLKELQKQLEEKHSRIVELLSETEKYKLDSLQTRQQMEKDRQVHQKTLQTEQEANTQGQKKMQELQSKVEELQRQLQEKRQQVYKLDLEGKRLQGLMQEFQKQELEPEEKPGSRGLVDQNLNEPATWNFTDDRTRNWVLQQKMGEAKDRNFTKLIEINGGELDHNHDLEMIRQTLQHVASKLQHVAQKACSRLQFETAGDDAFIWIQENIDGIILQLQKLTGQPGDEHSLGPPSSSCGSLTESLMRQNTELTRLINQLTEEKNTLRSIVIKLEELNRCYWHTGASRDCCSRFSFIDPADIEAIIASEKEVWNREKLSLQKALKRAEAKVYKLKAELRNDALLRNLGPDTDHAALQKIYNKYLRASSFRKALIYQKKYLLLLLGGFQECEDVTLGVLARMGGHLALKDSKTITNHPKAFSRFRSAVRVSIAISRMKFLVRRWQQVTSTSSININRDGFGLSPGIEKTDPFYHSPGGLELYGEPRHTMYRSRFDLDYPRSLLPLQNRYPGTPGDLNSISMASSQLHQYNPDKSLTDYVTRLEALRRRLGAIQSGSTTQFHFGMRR
# T3 sequence (O76083 whole entry): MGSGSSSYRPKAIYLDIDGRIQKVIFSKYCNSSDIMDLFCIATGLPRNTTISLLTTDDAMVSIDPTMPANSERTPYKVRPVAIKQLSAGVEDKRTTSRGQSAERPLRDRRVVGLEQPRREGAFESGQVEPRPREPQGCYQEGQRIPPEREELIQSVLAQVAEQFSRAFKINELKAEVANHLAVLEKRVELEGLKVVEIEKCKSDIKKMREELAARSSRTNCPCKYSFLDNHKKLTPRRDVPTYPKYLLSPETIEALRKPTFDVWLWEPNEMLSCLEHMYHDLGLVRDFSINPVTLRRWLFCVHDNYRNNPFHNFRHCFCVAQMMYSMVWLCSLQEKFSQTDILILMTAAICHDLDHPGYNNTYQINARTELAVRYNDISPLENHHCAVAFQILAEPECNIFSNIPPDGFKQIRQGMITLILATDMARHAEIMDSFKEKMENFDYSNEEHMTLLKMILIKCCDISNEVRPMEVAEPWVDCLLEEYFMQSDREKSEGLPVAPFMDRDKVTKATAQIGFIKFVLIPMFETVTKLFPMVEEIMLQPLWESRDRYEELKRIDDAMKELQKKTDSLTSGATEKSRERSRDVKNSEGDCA
compound,measurement,setting,value
"C=C(C)Cn1c(SCC(=O)c2cccs2)nc2sc3c(c2c1=O)CCCC3 [EGM, Eggmanone]",Vessel diameter after pre-constriction,mouse aorta,little to no contraction or dilation of the vessel; also recorded: had no effect on the vessel
same,Contractile function,hiPSC-CMs,increased contractile function
"C=C(C)Cn1c(SCC(=O)c2cccs2)nc2sc3c(c2c1=O)CCCC3 [Eggmanone, 3-(2-methylallyl)-2-((2-oxo-2-(thiophen-2-yl)ethyl)thio)-5,6,7,8-tetrahydrobenzo[4,5]thieno[2,3-d]pyrimidine-4(3H)-one]",pIC50,PDE4 isoforms,5.52 to 6.10 and 5.43 to 6.10
same,agonist or antagonist activity,panel of 158 GPCRs,did not exhibit significant agonist or antagonist activity
same,significant inhibition,panel of 158 GPCRs,> 10 µM
same,pIC50,PDE2A,< 4.30
same,inhibition at 50 µM,PDE7A1,< 10%
same,inhibition at 50 µM,PDE9A1,< 10%
same,inhibition at 50 µM,PDE8A1,< 10%
same,pIC50,PDE11A4,< 4.30
same,inhibition at 50 µM,PDE1A1,< 10%
same,inhibition at 50 µM,PDE6C,< 10%
same,pIC50,PDE3A,< 4.30
same,inhibition at 50 µM,PDE5A1,< 10%
same,inhibition at 50 µM,PDE10A2,< 10%
same,PDE4D3 localization / physical association with AKAP450,PDE4D3-AKAP450,does not disrupt PDE4D3 localization; also recorded: did not disrupt PDE4D3 localization or physical association with AKAP450
same,Antiviral effect on BVDV,[1],has antiviral effects
same,agonist or antagonist activity,panel of 21 phosphatases,did not exhibit significant agonist or antagonist activity
same,significant inhibition,panel of 21 phosphatases,> 10 µM
same,Antiviral effect on Dengue,Dengue,has antiviral effects
same,Viability of NIH3T3 cells,NIH3T3 cells,had no effect on parental NIH3T3 cells
same,Antiviral effect on Influenza,Influenza,has antiviral effects
